Reference: ChEMBL document CHEMBL1201862, “PubChem BioAssay data set” (2004)
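Method: 48-hour compound exposure of cells in 96-well plates, five concentrations, linear interpolation of endpoints. At the GI50, growth is halved.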 Calls of active or inactive are those of the source. No stated cut-off is given here; in the data, active = GI50 up to about 1.1 µM and inactive = higher.

What was measured:
Assay in all cases: NCI tumour cell line growth inhibition, 48 h
OVCAR-3 = system: OVCAR-3
NCI-H460 = system: NCI-H460
HCC 2998 = system: HCC 2998
LOX IMVI = system: LOX IMVI
PC-3 = system: PC-3
COLO 205 = system: COLO 205
SW-620 = system: SW-620
MDA-MB-435 = system: MDA-MB-435
Hs-578T = system: Hs-578T
A498 = system: A498
K562 = system: K562
HOP-62 = system: HOP-62
OVCAR-4 = system: OVCAR-4
ACHN = system: ACHN
HCT-15 = system: HCT-15
SK-MEL-5 = system: SK-MEL-5
SNB-19 = system: SNB-19
OVCAR-8 = system: OVCAR-8
SF-268 = system: SF-268
T47D = system: T47D
UO-31 = system: UO-31
MDA-MB-231 = system: MDA-MB-231
CCRF-CEM = system: CCRF-CEM
NCI/ADR-RES = system: NCI/ADR-RES
NCI-H226 = system: NCI-H226
NCI-H23 = system: NCI-H23
HL-60 = system: HL-60
M14 = system: M14
RPMI-8226 = system: RPMI-8226
CAKI-1 = system: CAKI-1
UACC-257 = system: UACC-257
MOLT-4 = system: MOLT-4
EKVX = system: EKVX
MDA-N = system: MDA-N
SN12C = system: SN12C
DU-145 = system: DU-145
SK-MEL-28 = system: SK-MEL-28
786-0 = system: 786-0
SF-295 = system: SF-295
UACC-62 = system: UACC-62
SK-MEL-2 = system: SK-MEL-2
KM12 = system: KM12
NCI-H522 = system: NCI-H522
IGROV-1 = system: IGROV-1
SR = system: SR
BT-549 = system: BT-549
MCF7 = system: MCF7
A549 = system: A549
SK-OV-3 = system: SK-OV-3
TK-10 = system: TK-10
U-251 = system: U-251
Malme-3M = system: Malme-3M
HCT-116 = system: HCT-116
RXF 393 = system: RXF 393
HT-29 = system: HT-29
OVCAR-5 = system: OVCAR-5
SF-539 = system: SF-539
SNB-75 = system: SNB-75

Compound: O=C(O)CC(C(=O)O)C1c2ccccc2-c2ccccc21 (centres undefined)
- GI50 (OVCAR-3): 35.5 µM (inactive)
- GI50 (NCI-H460): 33.6 µM (inactive)
- GI50 (HCC 2998): > 100 µM (inactive)
- GI50 (LOX IMVI): 38.5 µM (inactive)
- GI50 (PC-3): > 100 µM (inactive)
- GI50 (COLO 205): 81.8 µM (inactive)
- GI50 (SW-620): > 100 µM (inactive)
- GI50 (MDA-MB-435): 77.1 µM (inactive)
- GI50 (Hs-578T): > 100 µM (inactive)
- GI50 (A498): > 100 µM (inactive)
- GI50 (K562): > 100 µM (inactive)
- GI50 (HOP-62): 38.2 µM (inactive)
- GI50 (OVCAR-4): > 100 µM (inactive)
- GI50 (ACHN): 92.9 µM (inactive)
- GI50 (HCT-15): > 100 µM
- GI50 (SK-MEL-5): > 100 µM (inactive)
- GI50 (SNB-19): 34 µM (inactive)
- GI50 (OVCAR-8): 67 µM (inactive)
- GI50 (SF-268): 79.6 µM (inactive)
- GI50 (T47D): 20.2 µM (inactive)
- GI50 (UO-31): > 100 µM (inactive)
- GI50 (MDA-MB-231): > 100 µM (inactive)
- GI50 (CCRF-CEM): 32.4 µM (inactive)
- GI50 (NCI/ADR-RES): > 100 µM (inactive)
- GI50 (NCI-H226): > 100 µM (inactive)
- GI50 (NCI-H23): 92.3 µM (inactive)
- GI50 (HL-60): > 100 µM (inactive)
- GI50 (M14): > 100 µM (inactive)
- GI50 (RPMI-8226): 41.1 µM (inactive)
- GI50 (CAKI-1): 66.1 µM (inactive)
- GI50 (UACC-257): > 100 µM (inactive)
- GI50 (MOLT-4): 48.2 µM (inactive)
- GI50 (EKVX): > 100 µM (inactive)
- GI50 (MDA-N): > 100 µM (inactive)
- GI50 (SN12C): > 100 µM (inactive)
- GI50 (DU-145): 17.9 µM (inactive)
- GI50 (SK-MEL-28): > 100 µM (inactive)
- GI50 (786-0): > 100 µM (inactive)
- GI50 (SF-295): 45.1 µM (inactive)
- GI50 (UACC-62): > 100 µM (inactive)
- GI50 (SK-MEL-2): > 100 µM (inactive)
- GI50 (KM12): 66.8 µM (inactive)
- GI50 (NCI-H522): 47.9 µM (inactive)
- GI50 (IGROV-1): 70 µM (inactive)
- GI50 (SR): 37.5 µM (inactive)
- GI50 (BT-549): > 100 µM (inactive)
- GI50 (MCF7): 34.2 µM (inactive)
- GI50 (A549): 56.4 µM (inactive)
- GI50 (SK-OV-3): 66.8 µM (inactive)
- GI50 (TK-10): > 100 µM (inactive)
- GI50 (U-251): 39.3 µM (inactive)
- GI50 (Malme-3M): 58.6 µM (inactive)
- GI50 (HCT-116): > 100 µM (inactive)
- GI50 (RXF 393): > 100 µM (inactive)
- GI50 (HT-29): > 100 µM (inactive)

Compound: COc1nc(C#CC(C)(C)C)nc(OC)n1
- GI50 (OVCAR-3): 28.6 µM (inactive)
- GI50 (NCI-H460): 26.8 µM (inactive)
- GI50 (LOX IMVI): 16.6 µM (inactive)
- GI50 (PC-3): 31 µM (inactive)
- GI50 (COLO 205): 31.8 µM (inactive)
- GI50 (SW-620): 25 µM (inactive)
- GI50 (MDA-MB-435): 15 µM (inactive)
- GI50 (Hs-578T): 30.8 µM (inactive)
- GI50 (OVCAR-5): 21.2 µM (inactive)
- GI50 (A498): 41.9 µM (inactive)
- GI50 (K562): 38 µM (inactive)
- GI50 (HOP-62): 34.4 µM (inactive)
- GI50 (OVCAR-4): 16.4 µM (inactive)
- GI50 (ACHN): 39 µM (inactive)
- GI50 (HCT-15): 20.8 µM
- GI50 (SK-MEL-5): 16 µM (inactive)
- GI50 (SNB-19): > 100 µM (inactive)
- GI50 (OVCAR-8): 17.8 µM (inactive)
- GI50 (SF-268): 26.2 µM (inactive)
- GI50 (T47D): 55.5 µM (inactive)
- GI50 (UO-31): 28.7 µM (inactive)
- GI50 (MDA-MB-231): 20.9 µM (inactive)
- GI50 (NCI/ADR-RES): 21 µM (inactive)
- GI50 (NCI-H23): 19.7 µM (inactive)
- GI50 (HL-60): 25.8 µM (inactive)
- GI50 (M14): 36.6 µM (inactive)
- GI50 (CAKI-1): 22.3 µM (inactive)
- GI50 (UACC-257): 48.3 µM (inactive)
- GI50 (MOLT-4): 35.6 µM (inactive)
- GI50 (EKVX): 36 µM (inactive)
- GI50 (MDA-N): 12.4 µM (inactive)
- GI50 (SN12C): 21.9 µM (inactive)
- GI50 (DU-145): 23.6 µM (inactive)
- GI50 (SK-MEL-28): 37.2 µM (inactive)
- GI50 (786-0): 23.8 µM (inactive)
- GI50 (SF-539): 28.8 µM (inactive)
- GI50 (SF-295): 32.4 µM (inactive)
- GI50 (UACC-62): 14.8 µM (inactive)
- GI50 (SK-MEL-2): 30.3 µM (inactive)
- GI50 (KM12): 18.2 µM (inactive)
- GI50 (NCI-H522): 23.9 µM (inactive)
- GI50 (IGROV-1): 39.4 µM (inactive)
- GI50 (SR): 5.21 µM (inactive)
- GI50 (BT-549): 31.9 µM (inactive)
- GI50 (MCF7): 19 µM (inactive)
- GI50 (A549): 25.4 µM (inactive)
- GI50 (SNB-75): 33.6 µM (inactive)
- GI50 (SK-OV-3): 55 µM (inactive)
- GI50 (TK-10): 27.4 µM (inactive)
- GI50 (U-251): 39.2 µM (inactive)
- GI50 (Malme-3M): 19 µM (inactive)
- GI50 (HCT-116): 15.7 µM (inactive)
- GI50 (RXF 393): 31.9 µM (inactive)
- GI50 (HT-29): 40 µM (inactive)
